The source of these data is patent US11419859B2, “Combination therapy for treating malignancies” (Servier Pharmaceuticals LLC, priority 2015, dated 2022).

The data set can be described thus: blood bilirubin in subjects with a UGT1A1 mutation receiving COMPOUND 1. The class given is in vivo, human. From the text: All toxicity≥Grade 3 not due to underlying AML or complications of the disease or myelosuppressive treatment, with the exception of ≥Grade 3 blood bilirubin increases in subjects with a UGT1A1 mutation receiving COMPOUND 1.

For `CC(C)(O)CNc1nc(Nc2ccnc(C(F)(F)F)c2)nc(-c2cccc(C(F)(F)F)n2)n1` [COMPOUND 1, 2-methyl-[(4-[6-(trifluoromethyl)pyridin-2-yl]-6-{[2-(trifluoromethyl)pyridin-4-yl]amino}-1,3,5-triazin-2-yl)amino]propan-2-ol], the blood bilirubin entry is “isolated blood bilirubin increases have been seen”.
